Laboratory results reported in US11992493B1, “Use of compound or pharmaceutical derivative thereof in inhibiting CaMK2G protein activity” (priority 2022, dated 2024).

Experiments:
[1] = target: T1, human-derived CaMK2γ protein (Homo sapiens, UniProt Q13555); experiment: SPR (Biacore, CM5 chip amine-coupling) affinity to human-derived CaMK2γ protein; details: human-derived full-length CaMK2γ protein, read-out: binding constant
T1 construct: a pET28A vector is firstly used to express and purify the human-derived full-length CaMK2γ protein; made in house; host or cells: pET28A vector
Description: (§1) In the embodiment of the disclosure, the affinity between T2533 and human-derived CaMK2γ protein are detected. Specifically, a pET28A vector is firstly used to express and purify the human-derived full-length CaMK2γ protein. Subsequently, the affinity is determined by the surface plasmon resonance (SPR) method of Biacore™ using a CM5 chip amine-coupling.

[2] = target: T2, mouse-derived CaMK2γ protein (Mus musculus, UniProt Q923T9); experiment: SPR (Biacore, CM5 chip amine-coupling) affinity to mouse-derived CaMK2γ protein; details: mouse-derived full-length CaMK2γ protein, read-out: binding constant
T2 construct: a pET28A vector is firstly used to express and purify the mouse-derived full-length CaMK2γ protein; made in house; host or cells: pET28A vector
Description: as §1, with “mouse-derived” for “human-derived”, “SPR” for “surface plasmon resonance (SPR)”

[3] = test system: IL17A^+ cells in dermal γδT subsets; experiment: Flow cytometry of skin lymphocytes of IMQ-induced mice; assay type: in vivo, mouse; details: 5 mg/kg; compared with IMQ-induced mice without T2533
Description: (§2) DMSO is used to dissolve T2533 powder, the T2533 powder is weighed according to different dosage, and then diluted with β-cyclodextrin, the final concentration of DMSO is not more than 5%. The dose gradient of T2533 is 0 mg/kg, 2.5 mg/kg, 5 mg/kg, and 10 mg/kg. Each mouse is calculated as 20 grams (g), and each mouse needs to be administered 0 mg, 0.05 mg, 0.1 mg, and 0.2 mg per day.
Seven-week-old C57/BL6 mice are bred and modeled in SPF-level environment. […]
In each group of 6 mice, the hair on the back of the mice is shaved to make the exposed skin reach 4 square centimeters. […] The skin of mice is scored every day, the mice are euthanized on Day 4, and the skin tissues are taken for a series of detection.
(§3) The skin lymphocytes of mice in the above groups are isolated and detected by flow cytometry (i.e., the detection of the proportion of IL17A^+ cells in dermal γδT subsets, the IL17A^+ cells are main effector cells mediated by the CaMK2γ pathway of psoriasis and can secrete a large number of IL-17 cytokines to aggravate psoriasis). […] Quantitative PCR is performed on known proinflammatory genes closely related to psoriasis, including Il17a, Il17f, Il22, Tnfa and Il23a.

[4] = test system: Il17a, Il17f, Il22, Tnfa and Il23a; experiment: Quantitative PCR of proinflammatory genes in skin of IMQ-induced mice; assay type: in vivo, mouse; details: qPCR
Description: as §2
(§4) Seven-week-old C57/BL6 mice are bred and modeled in SPF-level environment. The experimental groups are as follows: (1) applying the skin with imiquimod (IMQ) and 0 mg/kg T2533; (2) applying the skin with IMQ and 2.5 mg/kg T2533; (3) applying the skin with IMQ and 5 mg/kg T2533; (4) applying the skin with IMQ and 10 mg/kg T2533; (5) applying the skin with Vaseline® and 0 mg/kg T2533; (6) applying the skin with Vaseline® and 2.5 mg/kg T2533; (7) applying the skin with Vaseline® and 5 mg/kg T2533; and (8) applying the skin with Vaseline® and 10 mg/kg T2533.
(§5) In each group of 6 mice, the hair on the back of the mice is shaved to make the exposed skin reach 4 square centimeters. The start date of the experiment is set as Day−2, and the end date is set as Day4. From Day−2 to Day3, 200 μL of liquid drug is taken in the morning and evening every day and evenly smeared on the skin of mice until it is absorbed. From Day 0 to Day 3, 62.5 mg IMQ is applied to each mouse at noon of every day. The skin of mice is scored every day, the mice are euthanized on Day 4, and the skin tissues are taken for a series of detection.
as §3

CaMK2γ = target: T3, CaMK2γ (Homo sapiens, UniProt Q13555); experiment: ADP-Glo Kinase Assay + CaMK2γ Kinase Enzyme System (Promega #V9201); assay type: biochemical; details: inhibitor final concentration 10 μM, compared with positive control, p<0.0001
T3 construct: purchased Promega #V9201
Description: The kinase activity (%) of 130 compounds screened above are detected by ADP-Glo™ Kinase Assay+CaMK2γ Kinase Enzyme System (Promega #V9201), and the evaluation standard is kinase activity (%).
The kinase activity (%) of each well is calculated by the above method.
In the embodiment of the disclosure, the inhibition of T2533 on CaMK2γ protein activity is detected by ADP-Glo™ Kinase Assay+CaMK2 γ Kinase Enzyme System (Promega #V9201), and the specific experimental steps and settings are as follows.
(1) well setting: 2 blank wells, 2 normal reaction wells, 2 dimethyl sulfoxide (DMSO) control wells, 40 inhibitor wells with 2 plex wells for each inhibitor and 20 inhibitors. There are 46 wells in total.
(2) preparation of a kinase reaction reagent: • (a) preparation of 200 […] 4× Kinase Buffer is as shown in Table 5 below. 175 μL of the 4× Kinase Buffer is required for a single experiment, that is, 2.5*20+62.5+62.5=175 μL. The rest is prepared into 1× Kinase Buffer and used as blank well.
• (b) preparation of 10 μL 5× inhibitor solution (final concentration is 10 micromoles per liter abbreviated μM), and 2.5 μL/well. Specifically, the inhibitor is 10 millimoles per liter abbreviated mM, diluted to 1 mM with DMSO in a ratio of 1:9; the preparation method of DMSO is the same as that of inhibitor, which is used as the DMSO control well, as shown in Table 6 below. […]

IMQ-induced mice = experiment: IMQ-induced psoriatic mouse model: PASI score, erythema, scaling, skin thickness, skin phenotype; assay type: in vivo; details: smeared on skin, Day−2 to Day3
Description: as §2, §4, §5
The PASI score results and the corresponding score results of erythema, scaling, and skin thickness of the above IMQ modelled mice are shown in FIG. 9, FIG. 10, FIG. 11, and FIG. 12, respectively. The skin phenotypes and skin pathological phenotypes are shown in FIG. 13 and FIG. 14, respectively.

T3 sequence (Q13555 whole entry): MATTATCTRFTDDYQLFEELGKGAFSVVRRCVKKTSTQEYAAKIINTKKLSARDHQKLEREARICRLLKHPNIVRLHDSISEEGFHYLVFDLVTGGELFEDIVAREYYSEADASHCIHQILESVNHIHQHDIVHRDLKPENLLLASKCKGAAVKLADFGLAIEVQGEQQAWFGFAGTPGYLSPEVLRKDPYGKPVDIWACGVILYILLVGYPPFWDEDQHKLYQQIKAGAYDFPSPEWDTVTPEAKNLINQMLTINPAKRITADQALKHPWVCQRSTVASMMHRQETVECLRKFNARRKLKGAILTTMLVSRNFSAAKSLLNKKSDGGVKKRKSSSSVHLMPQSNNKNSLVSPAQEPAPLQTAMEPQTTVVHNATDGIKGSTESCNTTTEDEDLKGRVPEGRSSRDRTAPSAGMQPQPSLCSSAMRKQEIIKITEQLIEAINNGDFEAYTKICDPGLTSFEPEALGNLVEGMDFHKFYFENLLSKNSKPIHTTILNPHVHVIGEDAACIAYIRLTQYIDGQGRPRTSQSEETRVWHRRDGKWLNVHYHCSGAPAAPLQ
T1 sequence (Q13555 whole entry): as above
T2 sequence (Q923T9 whole entry): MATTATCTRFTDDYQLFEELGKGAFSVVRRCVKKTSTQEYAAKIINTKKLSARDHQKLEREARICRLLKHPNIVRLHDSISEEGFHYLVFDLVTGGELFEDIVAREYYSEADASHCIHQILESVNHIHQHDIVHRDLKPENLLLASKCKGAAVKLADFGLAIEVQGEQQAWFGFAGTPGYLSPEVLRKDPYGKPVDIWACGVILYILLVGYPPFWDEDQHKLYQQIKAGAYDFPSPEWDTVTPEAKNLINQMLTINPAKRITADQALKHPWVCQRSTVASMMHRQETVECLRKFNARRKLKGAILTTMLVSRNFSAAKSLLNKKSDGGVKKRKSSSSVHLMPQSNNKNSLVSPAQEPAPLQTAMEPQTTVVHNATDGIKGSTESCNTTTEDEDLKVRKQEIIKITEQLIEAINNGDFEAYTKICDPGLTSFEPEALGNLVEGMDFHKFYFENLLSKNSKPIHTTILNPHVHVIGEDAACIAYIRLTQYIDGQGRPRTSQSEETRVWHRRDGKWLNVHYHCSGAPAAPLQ

- Kd [1]: 25.4 µM
- Kd [2]: 68.4 µM
- inhibition effect on kinase activity (%) (CaMK2γ; listed as compound I): most significant inhibition effect
SMILES: CN1CCC(=C2c3ccccc3CCn3c(C=O)cnc32)CC1 [T2533, Alcaftadine]
- proportion of IL-17A^+ cells in dermal γδT subsets [3]: significantly reduced
- expression of Il17a in the skin ([4]; 2.5 mg/kg): decrease significantly
- expression of Il17f in the skin ([4]; 2.5 mg/kg): decrease significantly
- expression of Il22 in the skin ([4]; 2.5 mg/kg): unchanged
- expression of Il23a in the skin ([4]; 2.5 mg/kg): unchanged
- expression of Tnfa in the skin ([4]; 2.5 mg/kg): unchanged
- expression of Il17a in the skin ([4]; 5 mg/kg): decrease significantly
- expression of Il17f in the skin ([4]; 5 mg/kg): decrease significantly
- expression of Il22 in the skin ([4]; 5 mg/kg): unchanged
- expression of Il23a in the skin ([4]; 5 mg/kg): decrease significantly
- expression of Tnfa in the skin ([4]; 5 mg/kg): decrease significantly
- inhibition effect on kinase activity (%) (CaMK2γ): effectively reduce the expression of CaMK2γ protein
- inflammatory phenotype of IMQ-induced mice (IMQ-induced mice; 2.5 mg/kg): reduces the inflammatory phenotype
- inflammatory phenotype of IMQ-induced mice (IMQ-induced mice; 5 mg/kg): most significant
- inflammatory phenotype of IMQ-induced mice (IMQ-induced mice; 10 mg/kg): reduces the inflammatory phenotype
